Laboratory results: patent US20240277658A1, “NLRP3 ACTIVATORS FOR USE IN THE TREATMENT OF INFECTIOUS DISEASES OR CANCER BY ACTIVATING NLRP3 INFLAMMASOME” (ALBERT-LUDWIGS-UNIVERSITÄT FREIBURG, priority 2020, published 2024)
Several values for one entry are separate records, joined by “and”; a condition that tells them apart may be missing. Equal entries are not always repeated. Where two headings read alike, the source gives them in different places.

Columns and labels:
NLRP3 inflammasome = target: T1, NLRP3 inflammasome (Mus musculus, UniProt Q8R4B8); assay: IL-1β release from LPS-primed BMDCs (ELISA) as readout of NLRP3 inflammasome activation; format: cell-based
T1 construct: endogenous in cells; host or cells: primary mouse bone marrow-derived dendritic cells (BMDCs), LPS-primed
Outline: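 NLRP3 inflammasome activation was read out as IL-1β released into the supernatant, measured by ELISA. Murine BMDCs were primed with LPS (50 ng ml^−1, 3 hours), then incubated with compounds for 3 hours, with each condition run in three technical replicates. Nigericin at 5 μM acted as the positive control activator, and IL-1β release was also expressed as a percentage of that control.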

BMDCs = assay: LDH release (lytic cell death, pyroptosis) from LPS-primed BMDCs; format: cell-based, mouse; settings: for Average (% positive control): LDH release; for cytotoxicity at 10 µM / cytotoxicity at 20 µM / cytotoxicity at 25 µM / cytotoxicity at 50 µM / cytotoxicity at 18.75 µM: Mus musculus, BMDC; for cytotoxicity at 50 µM: LPS-primed BMDCs
Outline: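 Mouse BMDCs (7-9 days differentiated, GM-CSF) primed with 50 ng ml^−1 E. coli K12 LPS for 3 hours, then exposed 3 hours to compounds (50 μM unless indicated) or activators (nigericin 5 μM; R837, CL097 100 μM). Lytic death measured as LDH release by colorimetric assay, triplicate wells.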

T1 sequence (Q8R4B8 whole entry): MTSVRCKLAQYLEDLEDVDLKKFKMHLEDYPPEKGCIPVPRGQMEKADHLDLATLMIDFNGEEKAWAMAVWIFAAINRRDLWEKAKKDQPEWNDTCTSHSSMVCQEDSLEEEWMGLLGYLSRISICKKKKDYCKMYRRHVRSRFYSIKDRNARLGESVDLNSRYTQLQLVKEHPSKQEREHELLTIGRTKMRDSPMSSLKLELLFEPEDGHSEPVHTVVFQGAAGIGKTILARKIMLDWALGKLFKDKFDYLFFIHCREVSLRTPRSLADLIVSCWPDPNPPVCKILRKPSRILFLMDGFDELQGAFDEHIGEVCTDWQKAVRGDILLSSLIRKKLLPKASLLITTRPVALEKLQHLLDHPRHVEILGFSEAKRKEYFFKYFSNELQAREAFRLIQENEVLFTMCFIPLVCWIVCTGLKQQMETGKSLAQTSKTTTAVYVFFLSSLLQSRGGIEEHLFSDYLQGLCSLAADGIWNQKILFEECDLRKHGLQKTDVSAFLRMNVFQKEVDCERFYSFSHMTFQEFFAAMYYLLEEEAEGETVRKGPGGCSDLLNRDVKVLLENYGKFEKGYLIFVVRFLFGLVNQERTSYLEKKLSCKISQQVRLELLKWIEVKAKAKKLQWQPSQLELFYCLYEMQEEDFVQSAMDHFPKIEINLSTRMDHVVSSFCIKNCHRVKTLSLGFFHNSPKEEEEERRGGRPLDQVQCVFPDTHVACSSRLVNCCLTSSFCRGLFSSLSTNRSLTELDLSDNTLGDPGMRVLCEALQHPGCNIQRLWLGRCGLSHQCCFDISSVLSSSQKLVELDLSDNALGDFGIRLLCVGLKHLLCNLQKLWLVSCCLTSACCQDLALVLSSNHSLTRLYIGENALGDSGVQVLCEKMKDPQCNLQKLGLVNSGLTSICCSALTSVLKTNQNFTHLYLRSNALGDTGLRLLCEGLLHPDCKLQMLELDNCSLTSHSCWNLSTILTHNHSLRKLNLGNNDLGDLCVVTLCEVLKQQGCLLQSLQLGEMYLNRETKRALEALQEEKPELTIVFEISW

Average IL-1β (NLRP3 inflammasome; 10 μM): 10.000 ng/mL | IL-1β (NLRP3 inflammasome; 10 μM, individual replicate values): 10.000 ng/mL | Average IL-1β (NLRP3 inflammasome; 18.75 μM): 6.322 ng/mL | Average IL-1β (NLRP3 inflammasome; 25 μM, EN11 series table): 1.474 ng/mL | time after which inflammasome activation is almost maximum (NLRP3 inflammasome; BMDCs from wild-type mice without inhibitor): 30 min | EC50 for induction of IL-1β, times lower than for imiquimod and CL097 (NLRP3 inflammasome; BMDCs, FIG. 4D): 10 times | Average (% positive control) (NLRP3 inflammasome; IL-1β release, compound 50 μM, positive control nigericin 5 μM): 128.957 % positive control | Average (% positive control) (NLRP3 inflammasome; IL-1β, 10 μM, positive control EN22 10 μM): 100.000 % positive control | Average (% positive control) (NLRP3 inflammasome; IL-1β, 18.75 μM, positive control EN22 18.75 μM): 100.000 % positive control | Average (% positive control) (NLRP3 inflammasome; IL-1β, 25 μM, positive control EN22 25 μM): 100.000 % positive control | Average (% positive control) (NLRP3 inflammasome; IL-1β, concentration not given, positive control EN22): 100.000 % positive control | Average IL-1β (NLRP3 inflammasome; compound 50 μM, LPS-primed BMDCs): 9.244 ng/mL | Average IL-1β (NLRP3 inflammasome; concentration not given, JB series table): 1.957 ng/mL | Average IL-1β (NLRP3 inflammasome; section 1.2, 25 μM): 5.026 ng/mL | Average (% positive control) (NLRP3 inflammasome; section 1.2, IL-1β release, 25 μM, positive control EN22 25 μM): 100.000 % positive control
SMILES: O=C(Nc1ccccc1)Nc1ccc2ncccc2c1 [EN22, 1-phenyl-3-(quinolin-6-yl)urea]
IL-1β (NLRP3 inflammasome; 18.75 μM, individual replicate values): 7.071 ng/mL and 5.864 ng/mL and 6.030 ng/mL | IL-1β (NLRP3 inflammasome; 25 μM, individual replicate values, EN11 series table): 1.387 ng/mL and 1.391 ng/mL and 1.646 ng/mL | IL-1β (NLRP3 inflammasome; concentration not given, individual replicate values, JB series table): 1.632 ng/mL and 2.095 ng/mL and 2.146 ng/mL | IL-1β (NLRP3 inflammasome; section 1.2, single replicates, 25 μM): 4.821 ng/mL and 5.196 ng/mL and 5.062 ng/mL | IL-1β (NLRP3 inflammasome; single replicates, compound 50 μM, LPS-primed BMDCs): 8.679 ng/mL and 9.014 ng/mL and 9.589 ng/mL and 8.363 ng/mL and 10.000 ng/mL and 9.819 ng/mL | Average (% positive control) (BMDCs; 10 μM, positive control EN22 10 μM): 100.000 % positive control | Average (% positive control) (BMDCs; 20 μM, positive control EN22 20 μM): 100.000 % positive control | Average (% positive control) (BMDCs; 25 μM, positive control EN22 25 μM): 100.000 % positive control | Average (% positive control) (BMDCs; compound 50 μM, positive control nigericin 5 μM): 95.180 % positive control | cytotoxicity at 10 µM (BMDCs; 10 μM, individual replicate values, read-out: LDH release (% of max.)): 78.1% | cytotoxicity at 10 µM (BMDCs; 10 μM, read-out: Average LDH release (% of max.)): 76.8% | cytotoxicity at 20 µM (BMDCs; 20 μM, individual replicate values, read-out: LDH release (% of max.)): 49.4% | cytotoxicity at 20 µM (BMDCs; 20 μM, read-out: Average LDH release (% of max.)): 53.3% | cytotoxicity at 25 µM (BMDCs; 25 μM, EN11 series table, read-out: Average LDH release (% of max.)): 50.8% | cytotoxicity at 25 µM (BMDCs; 25 μM, individual replicate values, EN11 series table, read-out: LDH release (% of max.)): 51.9% | cytotoxicity at 50 µM (BMDCs; compound 50 μM, read-out: Average LDH release (% of max.)): 69.6% | cytotoxicity at 25 µM (BMDCs; section 1.2, 25 μM, read-out: Average LDH release (% of max.)): 30% | cytotoxicity at 25 µM (BMDCs; section 1.2, single replicates, 25 μM, read-out: LDH release (% of max.)): 29.6% | cytotoxicity at 18.75 µM (BMDCs; section 1.4, 18.75 μM, read-out: Average LDH release (% of max.)): 71.3% | cytotoxicity at 18.75 µM (BMDCs; section 1.4, single replicates, 18.75 μM, read-out: LDH release (% of max.)): 71.4% | cytotoxicity at 50 µM (BMDCs; single replicates, compound 50 μM, read-out: LDH release (% of max.)): 59.4% | Average (% positive control) (BMDCs; section 1.2, 25 μM, positive control EN22 25 μM): 100.000 % positive control | Average (% positive control) (BMDCs; section 1.4, 18.75 μM, positive control EN22 18.75 μM): 100.000 % positive control
